Experimental data as given in paper PMC7562955 (Nature Communications, 2020).

What was measured:
[1] = biological target: T1, mouse TLR7 (Mus musculus, UniProt P58681); assay: Mouse TLR7 reporter gene assay (NF-kB luciferase, HEK293); format: cell-based
T1 construct: host or cells: HEK293 (293XL-mTLR7)
T1 sequence (P58681 27-1050): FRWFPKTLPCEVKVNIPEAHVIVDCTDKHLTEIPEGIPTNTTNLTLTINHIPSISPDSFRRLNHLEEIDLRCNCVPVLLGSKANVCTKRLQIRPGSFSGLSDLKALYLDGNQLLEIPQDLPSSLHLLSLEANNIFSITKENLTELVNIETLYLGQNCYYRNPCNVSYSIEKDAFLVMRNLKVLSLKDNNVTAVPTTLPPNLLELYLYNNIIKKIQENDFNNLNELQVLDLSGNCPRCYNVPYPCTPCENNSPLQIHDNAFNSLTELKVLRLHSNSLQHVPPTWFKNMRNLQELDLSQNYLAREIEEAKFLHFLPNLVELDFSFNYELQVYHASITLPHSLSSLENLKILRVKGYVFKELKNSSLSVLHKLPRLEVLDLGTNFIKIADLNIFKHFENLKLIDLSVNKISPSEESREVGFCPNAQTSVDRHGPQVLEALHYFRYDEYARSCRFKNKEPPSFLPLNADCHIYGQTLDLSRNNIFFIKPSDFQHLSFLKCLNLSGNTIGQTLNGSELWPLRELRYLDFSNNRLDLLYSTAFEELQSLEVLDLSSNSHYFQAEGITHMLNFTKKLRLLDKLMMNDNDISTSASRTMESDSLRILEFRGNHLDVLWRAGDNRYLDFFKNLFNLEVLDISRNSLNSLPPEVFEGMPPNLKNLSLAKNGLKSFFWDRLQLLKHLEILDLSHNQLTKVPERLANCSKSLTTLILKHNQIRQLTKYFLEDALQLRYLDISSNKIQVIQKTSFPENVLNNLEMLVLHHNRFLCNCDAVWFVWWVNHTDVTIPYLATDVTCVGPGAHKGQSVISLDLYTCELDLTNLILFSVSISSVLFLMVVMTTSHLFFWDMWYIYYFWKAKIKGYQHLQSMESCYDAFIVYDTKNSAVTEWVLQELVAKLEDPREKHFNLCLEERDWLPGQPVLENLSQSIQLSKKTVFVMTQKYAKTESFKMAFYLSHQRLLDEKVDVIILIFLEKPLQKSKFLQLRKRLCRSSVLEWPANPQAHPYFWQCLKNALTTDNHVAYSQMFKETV
Protocol: Compounds were dissolved in dimethyl sulfoxide. The day before transfection, mouse TLR7 genestably-expressing HE293 cell line (293XL-mTLR7 cell, InvivoGen, USA) and mouse TLR9 genestably-expressing HEK293 cell line (293-mTLR9 cell, InvivoGen) were seeded in collagen-coated 6-well plate (AGC techno glass) at 3 × 10^5 cells/well in DMEM (GIBCO) with 10% fetal bovine serum (GIBCO), and 10 μg ml^−1 Blastcidin S HCl (GIBCO) and incubated at 37 °C in 5% CO2. The plates were incubated over-night and then cotransfected with 1 μg (mouse TLR7) or 0.3 μg (mouse TLR9) of pNF-kB-Luciferase reporter in a 10:1 ratio with 4 μl of FuGene6 transfection reagent (Promega corporation, USA) following the manufacturer’s instructions. The plates were incubated 24 h. The cells re-seeded into 96-well plate (AGC techno glass) at 2 × 10^4 cells/well in DMEM (GIBCO) with 10% fetal bovine serum (GIBCO), and 10 μg ml^−1 Blastcidin S HCl (GIBCO) and then inhibition with various concentrations of compound. HCQ (mouse TLR7/9, Acros Organics, United Kingdom) was used as positive control. After 30 min, R848 (mouse TLR7/8 ligand) or CpG1826 (mouse TLR9 ligand, Hokkaido System Science Co., Ltd.) added to each well, wherein each final concentration were adjusted to 200 nM R848 (mouse TLR7) or 100 nM CpG1826 (mouse TLR9). The plates were then incubated an additional 6 h at 37 °C in 5% CO2, and then the luciferase activity was measured as activation of mouse TLR7 and 9. The luciferase activity was evaluated as follows: Bright-GloTM Luciferase Assay System (Promega) was added to the incubated sample (100 μl/well); after 2 min, the luminescence intensity of each sample was measured with a luminometer (Envision).

[2] = biological target: T2, TLR1/2 (Homo sapiens, UniProt O60603+Q15399); assay: TNF-α production by human PBMC stimulated by TLR1/2 ligand Pam3CSK4 (ELISA); format: cell-based; conditions: human PBMCs, 2.5 μM
T2 construct: Human Peripheral Blood Mononuclear cells (hPBMCs) were collected from healthy adult donors; endogenous in cells; host or cells: primary human PBMCs

[3] = compound 0.0001 nM (as headed), R848 200 nM
[4] = compound 0.001 nM (as headed), R848 200 nM
[5] = compound 0.003 nM (as headed), R848 200 nM
[6] = compound 0.01 nM (as headed), R848 200 nM
[7] = compound 0.03 nM (as headed), R848 200 nM
[8] = compound 0.1 nM (as headed), R848 200 nM
[9] = compound 0.3 nM (as headed), R848 200 nM
[10] = compound 1 nM (as headed), R848 200 nM
[11] = compound 3 nM (as headed), R848 200 nM
[12] = compound 10 nM (as headed), R848 200 nM
[13] = compound 30 nM (as headed), R848 200 nM
[14] = compound 100 nM (as headed), R848 200 nM

T2 sequence (Q15399 25-786): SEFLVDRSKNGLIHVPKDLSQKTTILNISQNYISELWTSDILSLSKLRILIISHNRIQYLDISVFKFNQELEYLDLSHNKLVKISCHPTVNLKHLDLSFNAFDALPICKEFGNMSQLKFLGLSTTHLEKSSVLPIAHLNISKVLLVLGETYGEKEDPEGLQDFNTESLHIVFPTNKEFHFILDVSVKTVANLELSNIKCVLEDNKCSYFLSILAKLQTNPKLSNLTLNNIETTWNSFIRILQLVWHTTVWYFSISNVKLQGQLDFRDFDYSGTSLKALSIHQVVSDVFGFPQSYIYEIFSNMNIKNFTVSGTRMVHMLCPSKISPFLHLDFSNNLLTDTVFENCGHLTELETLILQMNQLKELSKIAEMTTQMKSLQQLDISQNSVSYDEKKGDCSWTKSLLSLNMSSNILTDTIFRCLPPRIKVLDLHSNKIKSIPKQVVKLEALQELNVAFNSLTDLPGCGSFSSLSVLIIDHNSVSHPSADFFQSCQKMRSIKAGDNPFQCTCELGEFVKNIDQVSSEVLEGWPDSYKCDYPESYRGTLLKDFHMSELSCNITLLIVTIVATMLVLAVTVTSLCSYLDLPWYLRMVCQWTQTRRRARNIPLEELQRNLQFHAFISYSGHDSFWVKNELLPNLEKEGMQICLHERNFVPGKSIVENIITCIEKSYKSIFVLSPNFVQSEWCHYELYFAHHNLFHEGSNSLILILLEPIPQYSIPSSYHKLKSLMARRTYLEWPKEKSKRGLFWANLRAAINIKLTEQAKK
T2 sequence (O60603 19-784 limits assumed): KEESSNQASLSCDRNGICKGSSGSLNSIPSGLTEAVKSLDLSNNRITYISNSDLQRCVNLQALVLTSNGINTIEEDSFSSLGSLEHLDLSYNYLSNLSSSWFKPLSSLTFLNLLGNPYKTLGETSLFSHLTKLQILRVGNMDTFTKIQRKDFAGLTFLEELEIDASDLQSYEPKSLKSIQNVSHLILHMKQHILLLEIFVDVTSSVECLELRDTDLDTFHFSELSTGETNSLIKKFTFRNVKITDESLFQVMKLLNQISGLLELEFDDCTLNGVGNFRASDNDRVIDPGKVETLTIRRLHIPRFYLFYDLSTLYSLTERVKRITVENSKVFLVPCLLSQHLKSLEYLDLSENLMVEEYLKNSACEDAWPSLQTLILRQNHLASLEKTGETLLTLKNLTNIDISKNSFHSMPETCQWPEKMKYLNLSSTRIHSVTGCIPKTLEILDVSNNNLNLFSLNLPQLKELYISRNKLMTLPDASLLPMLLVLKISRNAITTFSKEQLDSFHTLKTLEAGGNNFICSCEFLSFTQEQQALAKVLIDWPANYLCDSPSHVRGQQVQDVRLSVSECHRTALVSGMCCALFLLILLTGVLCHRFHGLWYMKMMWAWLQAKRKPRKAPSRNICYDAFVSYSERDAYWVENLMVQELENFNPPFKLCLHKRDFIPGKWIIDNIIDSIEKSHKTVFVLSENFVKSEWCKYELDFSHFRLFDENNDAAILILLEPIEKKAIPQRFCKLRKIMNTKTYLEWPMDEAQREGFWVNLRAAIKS

| Compound | selectivity mouse TLR7 vs TLR9 [1] | IC50 ([1]; R848 200 nM) | mouse TLR7 activity, reporter signal [1, 3] | mouse TLR7 activity, reporter signal [1, 4] | mouse TLR7 activity, reporter signal [1, 5] | mouse TLR7 activity, reporter signal [1, 6] | mouse TLR7 activity, reporter signal [1, 7] | mouse TLR7 activity, reporter signal [1, 8] | mouse TLR7 activity, reporter signal [1, 9] | mouse TLR7 activity, reporter signal [1, 10] | mouse TLR7 activity, reporter signal [1, 11] | mouse TLR7 activity, reporter signal [1, 12] | mouse TLR7 activity, reporter signal [1, 13] | mouse TLR7 activity, reporter signal [1, 14] | cytotoxicity [2] |
| --- | --- | --- | --- | --- | --- | --- | --- | --- | --- | --- | --- | --- | --- | --- | --- |
| CCOc1nc(C)c2nc(-c3cncc(F)c3)n(Cc3ccc(CN4C[C@@H]5C[C@H]4CN5C)cc3)c2n1 [Cpd-7] | TLR7-selective | 192 nM | 7166 | 5248 | 4474 | 4918 | 5112 | 4262 | 2860 | 1240 | 1308 | 550 | 0 | 0 | not cytotoxic |
| CCOc1nc(N)c2nc(-c3cncc(F)c3)n(Cc3ccc(CN4C[C@@H]5C[C@H]4CN5C)cc3)c2n1 [Cpd-6] | – | – | – | – | – | – | – | – | – | – | – | – | – | – | not cytotoxic |
| CCN(CCO)CCCC(C)Nc1ccnc2cc(Cl)ccc12 (stereo not shown) [HCQ, hydroxychloroquine, reference compound] | – | – | 7166 | 7642 | 8310 | 7288 | 6268 | 6670 | 9264 | 7190 | 9456 | 3934 | 558 | 1958 | – |
